Laboratory results: US9707184B2, “Immediate release abuse deterrent liquid fill dosage form” (priority 2014, dated 2017)

Test: Solubility of the formulation components in water and alcohol
Type: physicochemical
Conditions: 200 proof ethanol, filtered through a 0.45 micrometer PTFE filter
Source text: Dyes can also be used and chosen to be soluble in both water and alcohol to produce a dark colored solution upon extraction and filtering as a visual deterrent to abuse. The formulation can include the following components listed in the Table 8 below, including a number of different dyes.

SMILES	Alcohol Solubility (Tested)
CCN(Cc1cccc(S(=O)(=O)[O-])c1)c1ccc(C(=C2C=CC(=[N+](CC)Cc3cccc(S(=O)(=O)[O-])c3)C=C2)c2ccccc2S(=O)(=O)[O-])cc1.[Na+].[Na+] [FD&C Blue #1]	Yes
COc1cc(S(=O)(=O)[O-])c(C)cc1N=Nc1c(O)ccc2cc(S(=O)(=O)[O-])ccc12.[Na+].[Na+] [FD&C Red #40]	Yes
COc1ccc2c3c1O[C@H]1C(=O)CC[C@@]4(O)[C@@H](C2)N(C)CC[C@]314.Cl [Oxycodone HCl, reference compound]	Yes
